Experiments:
[1] = tested on: serum proteins; assay: in vitro; conditions: both, human, plasma, Plasma protein bound
Method: The ex vivo protein binding of cilansetron and its 4-hydroxy metabolites has been measured in serum samples collected in a multiple-dose study in healthy and renally impaired male and female subjects, aged 33-74 years. […] Healthy subjects were matched to renally-impaired subjects with respect to age, weight, gender, and smoking status. All subjects received oral cilansetron 2 mg TID on Days 1 to 5, and a single dose on the morning of Day 6.

[2] = in vivo
Method: Time to reach steady state following dosing with cilansetron 2 mg TID has been evaluated in a study in 9 healthy male and female subjects.

[3] = human, in vivo
Method: Subjects were randomized to receive a cilansetron 8 mg capsule after an overnight fast and a cilansetron 8 mg capsule after a high-fat breakfast during the two treatment periods, with a 3-day washout between periods. Serial blood sampling and urine collection was performed up to 24 hours following each dose, and cilansetron pharmacokinetic parameters were evaluated.

[4] = tested on: healthy subjects; assay: Study S.241.2.104: gastric visceral perception (barostat); format: in vivo, human
Method: The effect of cilansetron on gastric perception was evaluated in a randomized, double-blind, placebo-controlled, parallel-group study in 44 male and female healthy subjects (ITT population; 22 subjects received placebo and 22 received 8 mg cilansetron), aged 19-43 years. Subjects received cilansetron 8 mg TID orally for 7 days and gastric distension tests were done at baseline (Day 1, prior to dosing) and poststudy (Day 8). An electronic barostat was used to produce isobarometric distensions (starting from 2 mmHg, progressive distensions in 2 mmHg increments were performed every 2 minutes until gastric pain occurred or an upper limit of 20 rnrnHg was reached) and isovolumetric distensions (starting from an initial volume of 200 mL, progressive distensions in 100 mL increments were performed every 2 minutes until gastric pain occurred or an upper limit of 1100 mL was reached). The primary efficacy parameter was the difference in pain threshold from baseline to poststudy, measured by the amount of distension pressure inducing gastric pain. Secondary parameters were the mean distension pressure/volume inducing the first feelings of gastric sensation and gastric discomfort, and changes in bowel habits over the treatment period. A 2-sample t-test was used to compare baseline-adjusted pain threshold and other secondary efficacy parameters between cilansetron and placebo treatments.

[5] = 8 mg TID oral 7 days, Day 8, arith. mean
[6] = 8 mg TID oral 7 days, arith. mean
[7] = 8 mg TID oral 7 days, baseline-adjusted, 2-sample t-test, significant (p < 0.01)

Cc1nccn1C[C@H]1CCc2c(c3cccc4c3n2CCC4)C1=O [Cilansetron, (R)-(−)-4,5,6,8,9,10-hexahydro-10-[(2-methyl-1H-imidazol-1-yl)methyl]-11H-pyrido-[3,2,1-jk]-carbazol-11-one]
fraction unbound [1]: ~0.04 | Steady state achieved by [2]: third day | CL/F ([3]; 8 mg): 2698 (77) mL/min | % Dose (urine) ([3]; male): 0.21 (91) % | AUC (0-last) ratio fed/fasted ([3]; male): 108% | AUC(0-inf) ratio fed/fasted ([3]; male): 104% | Cmax ratio fed/fasted ([3]; male): 79% | AUC(0-inf) ([3]; male, 8 mg): 77.6 (66) ng · h/mL | AUC(0-last) ([3]; male, 8 mg): 72.8 (72) ng · h/mL | CLr ([3]; male, 8 mg): 3.86 (90) mL/min | Cmax ([3]; male, 8 mg): 31.7 (58) ng/mL | Cmax decrease with high-fat meal ([3]; male, 8 mg): 21% | Tmax ([3]; male, 8 mg): 1.00 (0.50, 2.00) h | T½ ([3]; male, 8 mg): 1.43 (40) h | Vz/F ([3]; male, 8 mg): 309 (76) L | Mean gastric pain threshold raised vs baseline ([4]; 8 mg TID 7 days): 1.9 mmHg | Pressure first producing gastric discomfort, Poststudy [4, 5]: 11.9 mmHg | Pressure first producing gastric pain, Poststudy [4, 5]: 15.4 mmHg | Pressure first producing gastric sensation, Poststudy [4, 5]: 8.9 mmHg | Volume first producing gastric pain, Poststudy [4, 5]: 764 mL | Pressure first producing gastric discomfort, Change from Baseline [4, 6]: 0.9 mmHg | Pressure first producing gastric pain, Change from Baseline [4, 6]: 1.9 mmHg | Pressure first producing gastric sensation, Change from Baseline [4, 6]: 0.9 mmHg | Volume first producing gastric pain, Change from Baseline [4, 6]: 77 mL | Volume first producing gastric pain, Difference cilansetron versus placebo ([4]; 8 mg TID oral 7 days, baseline-adjusted, 2-sample t-test): -18 mL | Pressure first producing gastric discomfort, Difference cilansetron versus placebo [4, 7]: 2.2 mmHg | Pressure first producing gastric pain, Difference cilansetron versus placebo [4, 7]: 2.8 mmHg | Pressure first producing gastric sensation, Difference cilansetron versus placebo [4, 7]: 2.1 mmHg | Gastric discomfort threshold raised ([4]; in vivo): 0.9 mmHg | Gastric pain threshold mean increase vs placebo ([4]; in vivo): 2.8 mmHg | Gastric sensation threshold raised ([4]; in vivo): 0.9 mmHg | Mean volume to reach gastric pain threshold raised ([4]; in vivo): 77.3 mL | Gastric discomfort threshold treatment increase ([4]; vs placebo): 2.2 mmHg | Gastric sensation threshold treatment increase ([4]; vs placebo): 2.1 mmHg | Volume difference between treatments ([4]; vs placebo): -18.0 mL

— US20090176817A1, “Method of Treatment of Diarrhea-Predominant Irritable Bowel Syndrome in a Subject” (priority 2005, published 2009)
